Experimental data from patent US4743611A, “Naphthalenylsulfonylimidazolidinediones and their thioxo analogs useful as aldose reductase inhibitors” (American Home Products Corp., priority 1987, dated 1988).
Read-outs that look alike come from different tables or passages of the source. Each block holds one compound with its values, some of them ahead of it.

Legend:
[1] = target: T1, aldose reductase (Bos taurus, UniProt P16116); experiment: in vitro inhibition of aldose reductase (enzyme from bovine lens, modified Hayman and Kinoshita procedure); format: biochemical; details: read-out: % inhibition in vitro
T1 construct: preparation of the enzyme from bovine lens; from tissue; host or cells: bovine lens
Text: In the present case the procedure of Hayman and Kinoshita was modified in that the final chromatography step was omitted in the preparation of the enzyme from bovine lens.

[2] = target: T2, aldose reductase (Rattus norvegicus, UniProt P07943); experiment: lowering of dulcitol accumulation in vivo in lens, sciatic nerve and diaphragm of galactosemic rats; parameters: species or system rat (Sprague-Dawley); details: for ED50: po, 96 h
T2 construct: diminish the accumulation of dulcitol in the lenses, sciatic nerves and diaphragm of rats fed galactose; from tissue; host or cells: lens, sciatic nerve and diaphragm of living male Sprague-Dawley rats
Text: Such experiments are exemplified hereinbelow after the listing of the following general comments pertaining to these experiments:
(a) Four or more groups of six male rats, 50-70 g, Sprague-Dawley strain, were used. The first group, the control group, was fed a mixture of laboratory chow (rodent Laboratory Chow, Purina) and glucose at 20% (w/w %) concentration. The untreated galactosemic group was fed a similar diet in which galactose is substituted for glucose. The third group was fed a diet prepared by mixing a given amount of the test compound with the galactose containing diet. The concentration of galactose in the diet of the treated groups was the same as that for the untreated galactosemic group.
(b) After four days, the animals were killed by decapitation. The eyeballs were removed and punctured with a razor blade; the freed lenses were rolled gently on filter paper and weighed. The sciatic nerves were dissected as completely as possible and weighed. Both tissues when frozen can be kept up to two weeks before being analyzed for dulcitol.
Only two minor reagent changes were made: (a) The rinsing mixture was an aqueous 5% (w/v) trichloroacetic acid solution and (b) the stock solution was prepared by dissolving 25 mg of dulcitol in 100 ml of an aqueous trichloroacetic acid solution. [N.B.: For each experiment the average value found in the tissue from rats fed the glucose diet was subtracted from the individual values found in the corresponding tissue in galactose-fed rats to obtain the amount of polyol accumulated.]
The figures under L, N and D represent the percentage decrease of dulcitol accumulation in the tissues of the lens, sciatic nerve and diaphragm, respectively, for treated rats as compared to untreated rats.

[3] = diaphragm, 24 mg/kg/day in diet
[4] = rat, diaphragm, read-out: ED50, lowering dulcitol accumulation in vivo, D
[5] = rat, sciatic nerve, read-out: ED50, lowering dulcitol accumulation in vivo, N
[6] = diaphragm, 23 mg/kg/day in diet

- inhibition at 10 µM ([1]; 10^-5): 67%
- inhibition at 1 µM ([1]; 10^-6): 17%
- % lowering dulcitol accumulation in vivo, D [2, 3]: 61%
- % lowering dulcitol accumulation in vivo, D ([2]; diaphragm, 48 mg/kg/day in diet, p < 0.01): 64%
- % lowering dulcitol accumulation in vivo, D ([2]; diaphragm, 109 mg/kg/day in diet): 86%
- % lowering dulcitol accumulation in vivo, L ([2]; lens, 24 mg/kg/day in diet): 24%
- % lowering dulcitol accumulation in vivo, L ([2]; lens, 48 mg/kg/day in diet, p < 0.01): 40%
- % lowering dulcitol accumulation in vivo, L ([2]; lens, 109 mg/kg/day in diet): 49%
- ED50 [2, 4]: 18 mg/kg
- ED50 ([2]; rat, lens, read-out: ED50, lowering dulcitol accumulation in vivo, L): 99 mg/kg
- ED50 [2, 5]: 22 mg/kg
Compound: O=C1CN(S(=O)(=O)c2cccc3c(Br)cccc23)C(=S)N1 [Example 1, 1-[(5-Bromo-1-naphthalenyl)sulfonyl]-2-thioxo-4-imidazolidinone]

- inhibition at 10 µM ([1]; 10^-5): 93%
- inhibition at 1 µM ([1]; 10^-6): 89%
- inhibition at 0.1 µM ([1]; 10^-7): 45%
- results compared with tolrestat (in words) ([2]; 4.8 and 10.2 mg/kg/day versus tolrestat 4 and 11 mg/kg/day): comparable results
- % lowering dulcitol accumulation in vivo, D ([2]; diaphragm, 4.8 mg/kg/day in diet): 58%
- % lowering dulcitol accumulation in vivo, D ([2]; diaphragm, 10.2 mg/kg/day in diet): 72%
- % lowering dulcitol accumulation in vivo, D ([2]; diaphragm, 20.7 mg/kg/day in diet): 75%
- % lowering dulcitol accumulation in vivo, D [2, 6]: 81%
- % lowering dulcitol accumulation in vivo, D ([2]; diaphragm, 101 mg/kg/day in diet): 87%
- % lowering dulcitol accumulation in vivo, L ([2]; lens, 10.2 mg/kg/day in diet): 18%
- % lowering dulcitol accumulation in vivo, L ([2]; lens, 20.7 mg/kg/day in diet): 36%
- % lowering dulcitol accumulation in vivo, L ([2]; lens, 23 mg/kg/day in diet): 44%
- % lowering dulcitol accumulation in vivo, L ([2]; lens, 101 mg/kg/day in diet): 79%
- ED50 [2, 4]: 2 mg/kg
- ED50 [2, 5]: 8.1 mg/kg
Compound: O=C1CN(S(=O)(=O)c2cccc3c(Br)cccc23)C(=O)N1 [Example 2, 1-[(5-Bromo-1-naphthalenyl)sulfonyl]-2,4-imidazolidinedione]

- inhibition at 10 µM ([1]; 10^-5): 53%
- inhibition at 1 µM ([1]; 10^-6): 15%
Compound: O=C1CN(S(=O)(=O)c2ccc(Br)c3ccccc23)C(=S)N1 [Example 3, 1-[(4-bromo-1-naphthalenyl)sulfonyl]-2-thioxo-4-imidazolidinone]

- inhibition at 10 µM ([1]; 10^-5): 92%
- inhibition at 1 µM ([1]; 10^-6): 81%
- inhibition at 0.1 µM ([1]; 10^-7): 31%
- % lowering dulcitol accumulation in vivo, D [2, 3]: 27%
Compound: O=C1CN(S(=O)(=O)c2ccc(Br)c3ccccc23)C(=O)N1 [Example 4, 1-[(4-bromo-1-naphthalenyl)sulfonyl]-2,4-imidazolidinedione]

Compound: COc1ccc2c(S(=O)(=O)N3CC(=O)NC3=S)cccc2c1C(F)(F)F [Example 5, 1-[[6-methoxy-5-(trifluoromethyl)-1-naphthalenyl]sulfonyl]-2-thioxo-4-imidazolidinone]
- inhibition at 1 µM ([1]; 10^-6): 15%
- inhibition at 10 µM [1]: 40%

Compound: COc1ccc2c(S(=O)(=O)N3CC(=O)NC3=O)cccc2c1C(F)(F)F [Example 6, 1-[[6-Methoxy-5-(trifluoromethyl)-1-naphthalenyl]sulfonyl]-2,4-imidazolidinedione]
- inhibition at 1 µM ([1]; 10^-6): 84%
- inhibition at 0.1 µM ([1]; 10^-7): 43%
- inhibition at 10 µM [1]: 86%
- % lowering dulcitol accumulation in vivo, D ([2]; diaphragm, 86 mg/kg/day in diet, p < 0.01): 87%
- % lowering dulcitol accumulation in vivo, L ([2]; lens, 86 mg/kg/day in diet, p < 0.01): 60%

- inhibition at 10 µM ([1]; 10^-5): 58%
- inhibition at 1 µM ([1]; 10^-6): 12%
Compound: CN(C)c1cccc2c(S(=O)(=O)N3CC(=O)NC3=S)cccc12 [Example 7, 1-[[5-(dimethylamino)-1-naphthalenyl]sulfonyl]-2-thioxo-4-imidazolidinone]

Compound: CN(C)c1cccc2c(S(=O)(=O)N3CC(=O)NC3=O)cccc12 [Example 8, 1-[[5-(Dimethylamino)-1-naphthalenyl]sulfonyl]-2,4-imidazolidinedione]
- inhibition at 1 µM ([1]; 10^-6): 83%
- inhibition at 0.1 µM [1]: 38%
- inhibition at 10 µM [1]: 96%

- inhibition at 10 µM ([1]; 10^-5): 17%
Compound: O=C1CN(S(=O)(=O)c2cccc3ccccc23)C(=S)N1 [Example 9, 1-[(1-Naphthalenyl)sulfonyl]-2-thioxo-4-imidazolidinone]

- inhibition at 10 µM ([1]; 10^-5): 89%
- inhibition at 1 µM ([1]; 10^-6): 59%
- inhibition at 0.1 µM ([1]; 10^-7): 14%
- % lowering dulcitol accumulation in vivo, D [2, 6]: 31%
- % lowering dulcitol accumulation in vivo, L ([2]; lens, 23 mg/kg/day in diet): 10%
Compound: O=C1CN(S(=O)(=O)c2cccc3ccccc23)C(=O)N1 [Example 10, 1-[(1-Naphthalenyl)sulfonyl]-2,4-imidazolidinedione]

- inhibition at 10 µM ([1]; 10^-5): 10%
- inhibition at 1 µM ([1]; 10^-6): 9%
Compound: O=C1CN(S(=O)(=O)c2cccc3cc(Br)ccc23)C(=S)N1 [Example 11, 1-[(6-bromo-1-naphthalenyl)sulfonyl]-2-thioxo-4-imidazolidinone]

Compound: O=C1CN(S(=O)(=O)c2cccc3cc(Br)ccc23)C(=O)N1 [Example 12, 1-[(6-bromo-1-naphthalenyl)sulfonyl]-2,4-imidazolidinedione]
- inhibition at 10 µM ([1]; 10^-5): 89%
- inhibition at 1 µM ([1]; 10^-6): 70%
- inhibition at 0.1 µM ([1]; 10^-7): 23%
- % lowering dulcitol accumulation in vivo, D [2, 3]: 0%
- % lowering dulcitol accumulation in vivo, L ([2]; lens, 24 mg/kg/day in diet): 0%

Compound: O=C1CN(S(=O)(=O)c2cccc3ccc(Br)cc23)C(=S)N1 [Example 13, 1-[(7-bromo-1-naphthalenyl)sulfonyl]-2-thioxo-4-imidazolidinone]
- inhibition at 1 µM ([1]; 10^-6): 16%
- inhibition at 10 µM [1]: 46%

Compound: O=C1CN(S(=O)(=O)c2cccc3ccc(Br)cc23)C(=O)N1 [Example 14, 1-[(7-bromo-1-naphthalenyl)sulfonyl]-2,4-imidazolidinedione]
- inhibition at 0.1 µM ([1]; 10^-7): 36%
- inhibition at 1 µM [1]: 79%
- inhibition at 10 µM [1]: 93%
- % lowering dulcitol accumulation in vivo, D [2, 6]: 50%
- % lowering dulcitol accumulation in vivo, L ([2]; lens, 23 mg/kg/day in diet): 0%

- inhibition at 10 µM ([1]; 10^-5): 43%
- inhibition at 1 µM ([1]; 10^-6): 14%
Compound: O=C1CN(S(=O)(=O)c2cccc3c(Cl)cccc23)C(=S)N1 [Example 15, 1-[(5-chloro-1-naphthalenyl)sulfonyl]-2-thioxo-4-imidazolidinone]

Compound: O=C1CN(S(=O)(=O)c2cccc3c(Cl)cccc23)C(=O)N1 [Example 16, 1-[(5-chloro-1-naphthalenyl)sulfonyl]-2,4-imidazolidinedione]
- inhibition at 10 µM ([1]; 10^-5): 85%
- inhibition at 0.1 µM ([1]; 10^-7): 36%
- inhibition at 1 µM [1]: 79%
- % lowering dulcitol accumulation in vivo, D ([2]; diaphragm, 25 mg/kg/day in diet): 82%
- % lowering dulcitol accumulation in vivo, L ([2]; lens, 25 mg/kg/day in diet): 44%

- inhibition at 10 µM ([1]; 10^-5): 58%
- inhibition at 1 µM ([1]; 10^-6): 24%
- % lowering dulcitol accumulation in vivo, D ([2]; diaphragm, 26 mg/kg/day in diet): 34.0%
- % lowering dulcitol accumulation in vivo, L ([2]; lens, 26 mg/kg/day in diet): 0.0%
Compound: O=C1CN(S(=O)(=O)c2cccc3c(I)cccc23)C(=S)N1 [Example 17, 1-[(5-iodo-1-naphthalenyl)sulfonyl]-2-thioxo-4-imidazolidinone]

- inhibition at 0.1 µM ([1]; 10^-7): 59%
- % lowering dulcitol accumulation in vivo, D [2, 3]: 74.0%
- % lowering dulcitol accumulation in vivo, L ([2]; lens, 24 mg/kg/day in diet): 33%
Compound: O=C1CN(S(=O)(=O)c2cccc3c(I)cccc23)C(=O)N1 [Example 18, 1-[(5-iodo-1-naphthalenyl)sulfonyl]-2,4-imidazolidinedione]

- inhibition at 10 µM ([1]; 10^-5): 13%
- inhibition at 1 µM ([1]; 10^-6): 9%
Compound: O=C1CN(S(=O)(=O)c2ccc3c(Br)cccc3c2)C(=S)N1 [Example 19, 1-[(5-Bromo-2-naphthalenyl)sulfonyl]-2-thioxo-4-imidazolidinone]

- inhibition at 10 µM ([1]; 10^-5): 89%
- inhibition at 1 µM ([1]; 10^-6): 77%
- inhibition at 0.1 µM ([1]; 10^-7): 24%
- % lowering dulcitol accumulation in vivo, L ([2]; lens, 24 mg/kg/day in diet): N.S.
Compound: O=C1CN(S(=O)(=O)c2ccc3c(Br)cccc3c2)C(=O)N1 [Example 20, 1-[(5-Bromo-2-naphthalenyl)sulfonyl]-2,4-imidazolidinedione]

- % lowering dulcitol accumulation in vivo, D ([2]; rat, in vivo, 11 mg/kg/day): 89
Compound: COc1ccc2c(C(=S)N(C)CC(=O)O)cccc2c1C(F)(F)F [tolrestat, N-[[6-methoxy-5-(trifluoromethyl)-1-naphthalenyl]thioxomethyl]-N-methylglycine, reference compound]
